Data on eight compounds can be found in patent US9951097B2, “Antibacterial compounds targeting isoprenoid biosynthesis” (priority 2012, dated 2018).

Data set [1] has as its system Mycobacterium tuberculosis.
The subject of data set [2] is synthetic DNA dodecamer duplex d(CGCGAATTCGCG)2. Put plainly: DNA binding by differential scanning calorimetry (DSC). A general note: In DSC, transitions show as peaks or steps in heat flow.
A further data set deals with T1, S. aureus UPPS (Staphylococcus aureus, UniProt P60477).
T1 construct: His-tag (pET-32 Xa/LIC vector tag) (N, cleaved yes); made in house; host or cells: E. coli BL21 (DE3)
T1 sequence (P60477 1-256): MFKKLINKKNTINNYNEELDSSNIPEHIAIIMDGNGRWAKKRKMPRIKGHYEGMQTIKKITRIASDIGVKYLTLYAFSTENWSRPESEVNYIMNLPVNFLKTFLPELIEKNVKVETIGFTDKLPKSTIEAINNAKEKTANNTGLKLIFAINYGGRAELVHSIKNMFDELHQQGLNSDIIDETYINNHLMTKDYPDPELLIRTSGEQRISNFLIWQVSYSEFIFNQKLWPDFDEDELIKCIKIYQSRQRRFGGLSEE
Put plainly: biochemical. As to the method: (§1) Methods. EcUPPS and SaUPPS were expressed and purified as described previously (Durrant et al., Chem Biol Drug Des 2011, 78(3):323-332). UPPS inhibition assays were carried out as described previously, and UPPS/inhibitor crystals were obtained via soaking as described previously (Guo et al., Proc Natl Acad Sci USA 2007, 104(24):10022-10027). Structure determinations and refinements were carried out as described below in Example 3. […] Full synthesis and characterization details for all compounds investigated crystallographically are provided in Example 1 above. In vivo experiments used female BALB/c mice infected intraperitoneally with S. aureus (USA200), as described in detail in Example 3 below. Bacterial cell growth inhibition assays were carried out as described previously (Zhang et al., ACS Med Chem Lett 2012, 3(5):402-406).
(§2) UPPS Inhibition Assays. E. coli UPPS and S. aureus UPPS inhibition assays were carried out as described previously (Durrant et al., Chem Biol Drug Des 2011, 78(3):323-332). […] The IC50 values were obtained by fitting the inhibition data to a standard rectangular hyperbolic dose-response function in GraphPad PRISM 4.0 software (Graphpad Software, San Diego, Calif.). […] IPP and 0.01% Triton X-100.

Another data set has as its system E. coli. Put plainly: E. coli cell growth inhibition. Type of data set: cell-based. The conditions noted are these: for MIC90: Escherichia coli. As to the method:
(§3) Methods. EcUPPS and SaUPPS were expressed and purified as described previously (Durrant et al., Chem Biol Drug Des 2011, 78(3):323-332). UPPS inhibition assays were carried out as described previously, and UPPS/inhibitor crystals were obtained via soaking as described previously (Guo et al., Proc Natl Acad Sci USA 2007, 104(24):10022-10027). Structure determinations and refinements were carried out as described below in Example 3. For the eleven structures reported, the resolution was on average 1.88 Å (±0.29 Å) and Rfree was on average 24.6% (±3.9%). Full synthesis and characterization details for all compounds investigated crystallographically are provided in Example 1 above. In vivo experiments used female BALB/c mice infected intraperitoneally with S. aureus (USA200), as described in detail in Example 3 below. Bacterial cell growth inhibition assays were carried out as described previously (Zhang et al., ACS Med Chem Lett 2012, 3(5):402-406).
(§4) Cell growth inhibition. The growth of S. aureus (USA300 strain) and determination of MIC values were as described previously (Molohon et al., ACS chemical biology 2011, 6(12):1307-1313). E. coli growth and construction of isobolograms were also carried out basically as described previously (Leon et al., J Med Chem 2006, 49(25):7331-7341).

A further data set has as its target T2, E. coli UPPS (Escherichia coli, UniProt P60472).
T2 construct: His-tag (cleaved yes); made in house; host or cells: E. coli BL21 (DE3)
Put plainly: E. coli UPPS inhibition assay. Type of data set: biochemical. As to the method:
as §1, §2

The subject of data set [3] is S. aureus (USA300 strain). Put plainly: S. aureus cell growth inhibition. The conditions noted are these: USA300, MRSA strain; for MIC90: Staphylococcus aureus. Type of data set: cell-based. The protocol:
as §3, §4

The target in the next data set is UPPS. Nature of the data set: UPPS inhibition, enzyme species not given. Type of data set: biochemical. The protocol: as §1, §2
In data set [4] the test system is S. aureus USA200 Sanger 252 (MRSA) strain.

In brackets after ≈: the same amount, converted by molar mass. Entries after “also recorded” stand apart in the source; their conditions may differ. Read-outs that look alike come from different tables or passages of the source. Some results are limits rather than exact numbers.

T2 sequence (P60472 whole entry): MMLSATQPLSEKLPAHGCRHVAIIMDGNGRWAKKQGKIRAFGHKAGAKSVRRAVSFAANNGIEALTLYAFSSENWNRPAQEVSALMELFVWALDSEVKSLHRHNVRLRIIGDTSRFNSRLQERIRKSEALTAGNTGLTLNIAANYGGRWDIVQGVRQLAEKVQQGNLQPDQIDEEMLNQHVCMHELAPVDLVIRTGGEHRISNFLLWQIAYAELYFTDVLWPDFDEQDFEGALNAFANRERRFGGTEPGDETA

With `O=C(Nc1cccc(C2=NCCCN2)c1)c1ccc(-c2ccc(C(=O)Nc3cccc(C4=NCCCN4)c3)cc2)cc1` [BPH-1503], in data set [1], the “concentration inhibiting Mycobacterium tuberculosis” value turned out to be 1 µM. In addition, the “DNA binding (in words)” value in data set [2] is reported as “binds to DNA; also recorded: strong DNA binding”. The “shift in Tmax of DNA melting (DSC)” value in data set [2] (1 mM DNA duplex, 1 mM compound) was around 10 °C.

Turning to `O=P(O)(O)C(O)(Cc1cccc(-c2cccc3c2oc2ccccc23)c1)P(=O)(O)O` [Compound 5, reference compound], the values for the IC50 at S. aureus UPPS and at E. coli UPPS (read-out: E. coli UPPS IC50) were 350 nM and 280 nM, respectively. The “E. coli MIC90” value with E. coli was above 32 µg/mL. Also, the “S. aureus MIC90” value in data set [3] is above 32 µg/mL.

The term MIC90 denotes an inhibitory concentration at the 90% level, which refers to growth in some studies and to a panel of isolates in others. With `CCCCCCCCCCCCOc1cccc(O)c1C(=O)O` [Compound 11, (Dodecyloxy)-6-hydroxybenzoic acid], the IC50 is 1700 nM against S. aureus UPPS and 2200 nM on E. coli UPPS. In the data set with E. coli, the MIC90 was above 32 µg/mL.

Consider `CCCCCCCCCCOc1cccc(C(=O)Nc2ccc([N+](=O)[O-])cc2C(=O)O)c1` [Compound 12, 2-(3-(Decyloxy)benzamido)-5-nitrobenzoic acid], for which the IC50 was determined as 490 nM on S. aureus UPPS and 3000 nM on E. coli UPPS. The MIC90 (in the data set with E. coli; in data set [3]) was above 32 µg/mL throughout.

For the compound `CCCCCCCCOc1cccc(COc2ccc(Br)cc2P(=O)(O)O)c1` [Compound 13, (5-bromo-2-((3-(octyloxy)benzyl)oxy)phenyl)phosphonic acid], the IC50 amounted to 2500 nM on S. aureus UPPS and 920 nM against E. coli UPPS. For the same compound, the values for the MIC90 (against E. coli; in data set [3]) were above 32 µg/mL and 32 µg/mL (≈ 67.9 µM), respectively.

`O=C(Nc1cccc(C2=NCCN2)c1)c1ccc(C(=O)Nc2cccc(C3=NCCN3)c2)c([N+](=O)[O-])c1` [Compound 16, N^1, N^4-bis(3-(4,5-dihydro-1H-imidazol-2-yl)phenyl)-2-nitroterephthalamide]: the values for the IC50 against S. aureus UPPS and on E. coli UPPS were 4900 nM and 4800 nM, respectively. In addition, the MIC90 was 8 µg/mL (≈ 16.1 µM) with E. coli and above 32 µg/mL in data set [3].

As to `O=C(Nc1cccc(C2=NCCN2)c1)c1ccc(-c2ccc(C(=O)Nc3cccc(C4=NCCN4)c3)cc2)cc1` [Compound 17, N^4, N^4′-bis(3-(4,5-dihydro-1H-imidazol-2-yl)phenyl)-[1,1′-biphenyl]-4,4′-dicarboxamide], the IC50 at UPPS (read-out: UPPS IC50) was 100 nM; on UPPS (read-out: UPPS inhibition) it was around 100 nM. Moreover, the “concentration inhibiting Mycobacterium tuberculosis” value in data set [1] lay in the range of 0.4 to 0.5 µM. Moreover, the “adverse reactions in treated mice” value in data set [4] (10 mg/kg intraperitoneally once daily, 3 doses) is “no apparent adverse reactions”. In data set [4] (10 mg/kg intraperitoneally once daily, 3 doses, pooled results of 2 experiments), the mice survived was 20/20. The “activity in mouse model of infection (in words)” value in data set [4] (10 mg/kg once daily, 3 doses total) was “clear therapeutic activity; also recorded: No mice in the group treated once daily with 10 mg/kg of 17 (3 doses total) died during either experiment”. For the same compound, the values for the MIC90 (against E. coli; in data set [3]) were 4 µg/mL (≈ 7.57 µM) and 0.25 µg/mL (≈ 0.473 µM), respectively.

As for `NCCc1cc(Br)cc(C#Cc2cccc(C#Cc3cc(Br)cc(CCN)c3)c2)c1` [Compound 18, 2,2′-((1,3-phenylenebis(ethyne-2,1-diyl))bis(3-bromo-5,1-phenylene))diethanamine], the IC50 against S. aureus UPPS is 1400 nM; on E. coli UPPS (read-out: E. coli UPPS IC50), 6100 nM. Further, the MIC90 was 8 µg/mL (≈ 15.3 µM) in the data set with E. coli and above 32 µg/mL in data set [3].
